Experimental data reported in patent publication US6441049B2, “Method of treating neurodegenerative disorders via inhibition of amyloid beta peptide binding” (Ortho-McNeil Pharmaceutical, Inc., priority 1998, dated 2002).
pIC50: −log10 of the molar value. Read-outs that look alike come from different tables or passages of the source.

Tests used:
Aβ aggregation = biological target: T1, Aβ aggregation (Homo sapiens, UniProt P05067); experiment: Aβ aggregation assay on Synthaloid plates with labelled Aβ1-40; format: biochemical
T1 construct: 100 nM of fluo-Aβ1-40 in 100 μl of each well of the 96-well Synthaloid plate; purchased Amersham Pharmacia Biotech (125I-Aβ1-40); Advanced Bioconcepts (fluo-Aβ1-40)
T1 sequence (P05067 672-711 limits assumed): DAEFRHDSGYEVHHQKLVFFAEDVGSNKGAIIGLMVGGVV
Method: Aβs are known to form aggregates leading to the formation of amyloid plaques that are characteristic of Alzheimer's disease. […] We have validated this aggregation assay using both ^125I-Aβ1-40 and fluo-Aβ1-40 in a buffer containing 50 mM HEPES, pH 7.4, 0.1% BSA, 10% FCS and protease inhibitors. About 500 pM of ^125I-Aβ1-40 or 100 nM of fluo-Aβ1-40 in 100 μl of each well of the 96-well Synthaloid plate was allowed to incubate for 2.5 hr at room temperature in the presence or absence of inhibitors. At the end of the incubation, unbound protein in the wells was removed by three washes using the above buffer. The amount of bound protein which represented Aβ aggregation was measured either by scintillation counting or fluorescence measurements.

[1] = biological target: 206-216 stretch of the human α7 nAChR (Homo sapiens, UniProt P36544); conditions: inhibitors 1 uM to 10 uM
Method: A 2-5 ug quantity of the 11 amino acid peptide comprised of the 206-216 stretch of the α7 nAChR (N-Ac, C(O)NH2) are added to a 96-well microtiter plate in 50 mL 10 mM HEPES, pH 7.4, or any buffer 50 ul. ^125I-β-amyloid1-40 (2000 Ci/mmol, 50 pM) was added to the wells in the presence and absence of inhibitors (1 uM to 10 uM) dissolved in 1 uL of 30% or 100% DMSO. Unbound ligands were removed and bound radioactivity was measured using a Microbeta liquid scintillation counter.

[2] = test system: acetylcholine release from guinea pig hippocampus synaptosomes; experiment: K+-evoked 3H-acetylcholine release from synaptosomes, effect of Aβs; format: cell-based; conditions: for pIC50: read-out: ACh Release (IC50)
Method: Synaptosomes from guinea pig hippocampus were incubated with 0.1 μM ^3H-choline and then subjected to repeated washes to remove unincorporated ^3H-choline. The synaptosomes were treated with 65 mM K^+ for 30 seconds to elicit 3H-acetylcholine release.

[3] = 10 μM, read-out: % Inh Agg. (conc μM)

| Compound | % Inh Agg. (conc μM) (Aβ aggregation; 10 μM) | % α7 nAChR 206-216 Binding ([1]; 125I-β-amyloid1-40 50 pM) | % ACh Release at 10 μM [2] | also measured |
| --- | --- | --- | --- | --- |
| CCCN(CCC(C)CCC=C(C)C)C1Cc2c(O)ccc(O)c2CC1C (stereo not shown) [Compound 55] | 50-90 (10) % | 0% | 15% |  |
| COc1ccc(OC)c2c1C[C@@H](N1CCOCC1)[C@@H](C)C2 (relative stereo) [Compound 23, 5,8-Dimethoxy-cis-2-(1-morpholinyl)-3-methyl-1,2,3,4-tetrahydronaphthalene] |  | 54% |  |  |
| CCCN(Cc1ccccc1Cl)C1Cc2c(OC)ccc(OC)c2CC1C (racemic) [Compound 39] | 85 (10) % |  |  |  |
| CCCN(CCC)C1Cc2c(OC)ccc(OC)c2CC1C (single isomer, unassigned) [Compound 18] | 50-90 (10) % |  | 70% | pIC50 [2]: 5.00 |
| 5,8-bis(Diphenylphosphinoyl)-3-methyl-1,2,3,4-tetrahydronaphthalene [Compound 59] | <30 (10) % |  | 25% | % α7 nAChR 206-216 Binding ([1]; […]): 72% |
| CCCN(Cc1ccccc1)C1Cc2c(O)ccc(O)c2CC1C (racemic) [Compound 26] | <30 (10) % | 64% |  |  |
| C#CCN(CCC)C1Cc2c(OP(=O)(c3ccccc3)c3ccccc3)ccc(OP(=O)(c3ccccc3)c3ccccc3)c2CC1C (stereo not shown) [Compound 57] | <30 (10) % | 63% | 11% |  |
| CCCN(Cc1ccc(C)cc1)C1Cc2c(OC)ccc(OC)c2CC1C (racemic) [Compound 41] | <30(10) % | 19% | 14% |  |
| COc1ccc(OC)c2c1C[C@H](C)[C@H](Nc1ccc(OCCN3CCCCC3)cc1)C2 (relative stereo) [Compound 60, 5,8-Dimethoxy-cis-2-[N-(4-(2-(1-piperidinyl)ethoxy)phenyl)]amino-3-methyl-1,2,3,4-tetrahydronaphthalene] |  | 0% | 24% | % Inh Agg. (result in words) (Aβ aggregation; concentration not given): very active |
| C#CCN(CCC)C1Cc2c(O)ccc(O)c2CC1C (racemic) [Compound 32] | 69 (10) % |  |  |  |
| CCCN(Cc1ccc(O)cc1)C1Cc2c(O)ccc(O)c2CC1C (racemic) [Compound 38] | <30 (10) % |  |  |  |
| CCCN(Cc1ccc(I)cc1)C1Cc2c(OC)ccc(OC)c2CC1C (racemic) [Compound 35] | 38 (10) % |  |  |  |
| CCCN(Cc1ccccc1)C1Cc2c(OC)ccc(OC)c2CC1C (racemic) [Compound 25] |  | 48% |  |  |
| CCCNC1Cc2c(OC)ccc(OC)c2CC1C (stereo not shown) [Compound 7, 5,8-Dimethoxy-2-N-propylamino-3-methyl-1,2,3,4-tetrahydronaphthalene] |  |  |  | inhibition at 100 µM (Aβ aggregation; 100 μM, read-out: % Inh Agg. (conc μM)): 50% |
| COC(=O)[C@H](C)NC1Cc2c(OC)ccc(OC)c2CC1C (stereo partly drawn) [Compound 48, 5,8-Dimethoxy-2-[N-(L-alanylmethyl ester)]-3-methyl-1,2,3,4-tetrahydronaphthalene] | <30 (10) % | 2% | 0% |  |
| CCCN(CCCSC)C1Cc2c(O)ccc(O)c2CC1C (racemic) [Compound 28] | 50-90 (10) % | 34% |  |  |
| CCCN(CCC)C1Cc2c(OC)ccc(OC)c2CC1C (stereo not drawn) [Compound 8, 5,8-Dimethoxy-trans-2-di(N-propylamino)-3-methyl-1,2,3,4-tetrahydronaphthalene] |  |  |  | inhibition at 10 µM (Aβ aggregation; [3]): 50 to 90%; pIC50 ([2]; Cavia porcellus): 6.15 |
| CCCN(C)C1Cc2c(O)ccc(O)c2CC1C (stereo not shown) [Compound 53] |  |  | 18% | inhibition at 10 µM (Aβ aggregation; [3]): 50 to 90%; % α7 nAChR 206-216 Binding ([1]; […]): 0% |
| CCCN(CCCc1ccccc1)C1Cc2c(O)ccc(O)c2CC1C (racemic) [Compound 20] |  |  |  | % Inh Agg. (conc μM) (Aβ aggregation; 5 μM): 39 (5) % |
| CCCCOc1ccc(CN(CCC)C2Cc3c(OC)ccc(OC)c3CC2C)cc1 (racemic) [Compound 37] | <30 (10) % |  |  |  |
| CCCN(CCC)C1Cc2c(OC)ccc(OC)c2CC1C (single isomer, unassigned) [Compound 17] | >90 (10) % |  | 63% | pIC50 [2]: 6.00 |

| Compound | % Inh Agg. (conc μM) (Aβ aggregation; 10 μM) | % α7 nAChR 206-216 Binding ([1]; 125I-β-amyloid1-40 50 pM) | % ACh Release at 10 μM [2] | also measured |
| --- | --- | --- | --- | --- |
| CCCN(CCC)C1Cc2c(OC)ccc(O)c2CC1C (stereo not drawn) [Compound 45, 5-Hydroxy-8-methoxy-trans-2-di(N-propylamino)-3-methyl-1,2,3,4-tetrahydronaphthalene] |  |  | 78% | inhibition at 78 µM (Aβ aggregation; 78 μM as printed, read-out: % Inh Agg. (conc μM)): 30 to 50% |
| C#CCN(CCC)C1Cc2c(O)ccc(OP(=O)(c3ccccc3)c3ccccc3)c2CC1C (stereo not shown) [Compound 56] | <30 (10) % | 78% | 8% |  |
| CCCN(Cc1cccs1)C1Cc2c(OC)ccc(OC)c2CC1C (racemic) [Compound 29] | 12 (10) % |  |  |  |
| CCCN(CCC(C)CCC=C(C)C)C1Cc2c(OC)ccc(OC)c2CC1C (stereo not shown) [Compound 54] | 50-90 (10) % | 0% | 0% |  |
| C#CCN(CCC)C1Cc2c(O)ccc(O)c2CC1C (racemic) [Compound 34] | 69 (10) % |  |  |  |
| CCCN(CCC)C1Cc2c(O)ccc(OC)c2CC1C (stereo not drawn) [Compound 46, 5-Methoxy-8-hydroxy-trans-2-di(N-propylamino)-3-methyl-1,2,3,4-tetrahydronaphthalene] |  |  | 0% | inhibition at 10 µM (Aβ aggregation; [3]): 50 to 90%; % α7 nAChR 206-216 Binding ([1]; […]): 18% |
| CCCN(CCC)C1Cc2c(O)ccc(OCC=C(C)C)c2CC1C (racemic) [Compound 43] | 50-90 (10) % | 10% | 0% |  |
| CC1Cc2c(O)ccc(O)c2CC1N1CCOCC1 (stereo not drawn) [Compound 24, 5,8-Dihydroxy-cis-2-(1-morpholinyl)-3-methyl-1,2,3,4-tetrahydronaphthalene] |  | 43% |  |  |
| CCCN(C)C1Cc2c(OC)ccc(OC)c2CC1C (stereo not shown) [Compound 52] |  |  | 0% | inhibition at 10 µM (Aβ aggregation; [3]): 60%; % α7 nAChR 206-216 Binding ([1]; […]): 0% |
| CCCN(CCC)C1Cc2c(O)ccc(O)c2CC1C (stereo not shown) [Compound 15] |  |  |  | inhibition at 10 µM (Aβ aggregation; [3]): 50 to 90%; % α7 nAChR 206-216 Binding ([1]; […]): 85%; pIC50 [2]: 6.60 |
| CCCN(CCC)C1Cc2c(OCC=C(C)C)ccc(O)c2CC1C (racemic) [Compound 44] | 50-90 (10) % | 23% | 0% |  |
| CCCN(CCC)C1Cc2c(O)ccc(OP(=O)(c3ccccc3)c3ccccc3)c2CC1C (stereo not shown) [Compound 58] | <30 (10) % | 42% | 18% |  |
| CCCN(Cc1cccs1)C1Cc2c(O)ccc(O)c2CC1C (racemic) [Compound 30] |  |  |  | % Inh Agg. (conc μM) (Aβ aggregation; 5 μM): 38 (5) % |
| CCCN(CC1CCCCC1)C1Cc2c(OC)ccc(OC)c2CC1C (racemic) [Compound 21] |  |  |  | % Inh Agg. (conc μM) (Aβ aggregation; 5 μM): 20 (5) % |
| CCCN(CC1CCCCC1)C1Cc2c(O)ccc(O)c2CC1C (racemic) [Compound 22] |  |  |  | % Inh Agg. (conc μM) (Aβ aggregation; 50 μM): 38 (50) % |
| CCCN(CCCc1ccccc1)C1Cc2c(OC)ccc(OC)c2CC1C (racemic) [Compound 19] |  |  |  | % Inh Agg. (conc μM) (Aβ aggregation; 5 μM): 30 (5) % |
| CCCN(Cc1ccc(I)cc1)C1Cc2c(O)ccc(O)c2CC1C (racemic) [Compound 36] | <30 (10) % |  |  |  |
| CCCN(CCC)C1Cc2c(O)ccc(O)c2CC1C (stereo not shown) [Compound 16] | 50-90 (10) % |  |  | % α7 nAChR 206-216 Binding ([1]; […]): 44%; pIC50 [2]: 5.00 |
| C#CCN(CCC)C1Cc2c(OC)ccc(OC)c2CC1C (racemic) [Compound 31, 5,8-Dimethoxy-cis and trans-2-(N-propyl-N-propargyl)amino-3-methyl-1,2,3,4-tetrahydronaphthalene] | 34 (10) % |  |  |  |
| CCCN(Cc1ccc(C)cc1)C1Cc2c(O)ccc(O)c2CC1C (racemic) [Compound 42] | 60 (10) % |  |  |  |
| CCCN(Cc1ccccc1Cl)C1Cc2c(O)ccc(O)c2CC1C (racemic) [Compound 40] | 75 (10) % |  |  |  |
